Reference: US20250101025A1, “NOVEL PLK1 DEGRADATION INDUCING COMPOUND” (UPPTHERA, INC., priority 2021, published 2025)

Legend:
PLK1 = target: T1, PLK1 (Homo sapiens, UniProt P53350); test: Luciferase assay for PLK1 in HeLa LgBit (Plk1-HiBit KI) cell line; assay type: cell-based; settings: compound 300 nM, luminescence after 9 hours
T1 construct: endogenous in cells; host or cells: HeLa LgBit (Plk1-HiBit KI): HeLa stably expressing LgBit, with HiBit knocked in at the endogenous Plk1 locus by CRISPR/Cas9
Method: 2. Luciferase Assay for PLK1
(1) Preparation and Culture of HeLa LgBit (Plk1-HiBit KI) Cell Line
A HeLa cell line in which the LgBit vector was transfected and expressed stably was prepared. Then, after constructing gRNA and donor to express the HiBit amino acid sequence behind the C-terminal of the Plk1 gene, which was inherent in the cell, it was inserted into the cell together with a vector capable of expressing CRISPR/Cas9. Only the cells in which the insertion was completed and knock-in had progressed were selected, sub-cultured and used.
(2) Treatment of Compounds of the Present Invention and Method of Luciferase Assay
In the case of HeLa LgBit (Plk1-HiBit KI), the compounds were treated after being released after thymidine block, and the process was as follows. Thymidine (Sigma-Aldrich Cat. No. T9250-5G) was completely dissolved in DW and used in the experiment. For thymidine block, the products were treated with 2 mM of thymidine and then incubated for 24 hours. For release and chemical treatment, the medium was suctioned and washed with 1×PBS. TrypLE™ was added and incubated in 37° C. CO2 incubator for 5 min. Cells neutralized by adding complete media were counted through a counter. For each well of a 96-well culture plate (SPL), 3.3×10^4 cells and a total medium volume of 150 μL were seeded and incubated in a CO2 incubator.
Each cell line was incubated in a CO2 incubator for 18 hours, and Endurazine was added to each well to make up 4% of the total volume. After adding the compound of the present invention in a 96-well white plate (SPL) to a concentration of 300 nM, the wavelength of the plate reader (BMG Labtech, CLARIOstar Plus) was set to […], and then the luminescence was tracked in real time.
In Table 2, Activity represents the ratio of the luminescence value of each Exemplary Compound treatment group to DMSO treatment group (+++: <0.3, ++<0.6, +<0.7).

H526 cell line = test: Cell viability assay for NCI-H526 cell line (EZ-Cytox); assay type: cell-based; settings: Homo sapiens, NCI-H526, 120 h; H526 cells, 3-fold dilutions 3000 nM to 0.46 nM, 5 days
Method: (1) Culture of NCI-H526 Cell Line
(2) Treatment of Compounds of the Present Invention and Method of Cell Viability Assay
After treating the compound to each well to make the total volume of 200 μL, it was cultured in a CO2 incubator (Thermo Fisher Science, Cat. No. 4111) for 5 days.
The absorbance of the completely cultured sample was measured by setting the wavelength of a plate reader (BMG Labtech, CLARIOstar Plus) to […], and was measured after shaking for 3 minutes in a plate reader before measurement.
In Table 3, Activity represents IC50 value of each Exemplary Compound treatment group to H526 cell line (A: <30 nM, B: <50 nM, C: <100 nM, D: <200 nM, E: <400 nM).

T1 sequence (P53350 whole entry): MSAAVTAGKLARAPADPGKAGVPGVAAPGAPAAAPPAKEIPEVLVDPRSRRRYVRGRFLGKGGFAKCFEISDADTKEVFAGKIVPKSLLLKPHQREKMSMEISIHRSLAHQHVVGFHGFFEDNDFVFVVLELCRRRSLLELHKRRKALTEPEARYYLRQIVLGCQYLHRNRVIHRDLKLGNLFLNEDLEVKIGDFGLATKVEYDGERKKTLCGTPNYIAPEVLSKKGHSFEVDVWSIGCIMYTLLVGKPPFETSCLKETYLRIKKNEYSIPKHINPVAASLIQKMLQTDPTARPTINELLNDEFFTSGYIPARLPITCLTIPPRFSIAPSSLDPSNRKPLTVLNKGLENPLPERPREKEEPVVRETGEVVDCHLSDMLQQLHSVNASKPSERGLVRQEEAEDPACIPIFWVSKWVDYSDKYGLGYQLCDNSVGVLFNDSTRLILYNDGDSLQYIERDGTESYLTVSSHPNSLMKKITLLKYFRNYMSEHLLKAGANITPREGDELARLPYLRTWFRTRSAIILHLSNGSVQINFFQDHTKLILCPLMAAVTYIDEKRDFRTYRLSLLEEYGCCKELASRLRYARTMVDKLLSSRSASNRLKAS

SMILES | Activity: ratio of the luminescence value of each Exemplary Compound treatment group to DMSO treatment group (PLK1) | IC50 (H526 cell line)
COc1cc(C(=O)NC2CCN(C(=O)CCN3CCN(c4ccc(C(=O)NC5CCC(=O)NC5=O)cc4)CC3)CC2)ccc1Nc1ncc2c(n1)N(C1CCCC1)CC(F)(F)C(=O)N2C (centres unmarked) [Compound 4, 4-((9-cyclopentyl-7,7-difluoro-5-methyl-6-oxo-6,7,8,9-tetrahydro-5H-pyrimido[4,5-b][1,4]diazepin-2-yl)amino)-N-(1-(3-(4-(4-((2,6-dioxopiperidin-3-yl)carbamoyl)phenyl)piperazin-1-yl)propanoyl)piperidin-4-yl)-3-methoxybenzamide] | + (+<0.7) | 
COc1cc(C(=O)NC2CCN(C(=O)CCN3CCN(c4ccc(C(=O)NC5CCC(=O)NC5=O)nc4)CC3)CC2)ccc1Nc1ncc2c(n1)N(C1CCCC1)CC(F)(F)C(=O)N2C (centres unmarked) [Compound 7, 5-(4-(3-(4-(4-((9-cyclopentyl-7,7-difluoro-5-methyl-6-oxo-6,7,8,9-tetrahydro-5H-pyrimido[4,5-b][1,4]diazepin-2-yl)amino)-3-methoxybenzamido)piperidin-1-yl)-3-oxopropyl)piperazin-1-yl)-N-(2,6-dioxopiperidin-3-yl)picolinamide] | + (+<0.7) | 
COc1cc(C(=O)NC2CC3(CCN(CC4CCN(c5ccc(N(C)C6CCC(=O)NC6=O)cc5)CC4)CC3)C2)ccc1Nc1ncc2c(n1)N(C(C)C)CC(F)(F)C(=O)N2C (centres unmarked) [Compound 27, 4-((7,7-difluoro-9-isopropyl-5-methyl-6-oxo-6,7,8,9-tetrahydro-5H-pyrimido[4,5-b][1,4]diazepin-2-yl)amino)-N-(7-((1-(4-((2,6-dioxopiperidin-3-yl)(methyl)amino)phenyl)piperidin-4-yl)methyl)-7-azaspiro[3.5]nonan-2-yl)-3-methoxybenzamide] | +++ (+++: <0.3) | < 30 nM
COc1cc(C(=O)NN2CCC(N3CC4(CCN(c5ccc(N(C)C6CCC(=O)NC6=O)cc5)CC4)C3)CC2)ccc1Nc1ncc2c(n1)N(C(C)C)CC(F)(F)C(=O)N2C (centres unmarked) [Compound 31, 4-((7,7-difluoro-9-isopropyl-5-methyl-6-oxo-6,7,8,9-tetrahydro-5H-pyrimido[4,5-b][1,4]diazepin-2-yl)amino)-N-(4-(7-(4-((2,6-dioxopiperidin-3-yl)(methyl)amino)phenyl)-2,7-diazaspiro[3.5]nonan-2-yl)piperidin-1-yl)-3-methoxybenzamide] | ++ (++<0.6) | < 100 nM
COc1cc(C(=O)NC2CC3(CCN(CC4CCN(c5ccc6c(N7CCC(=O)NC7=O)nn(C)c6c5)CC4)CC3)C2)ccc1Nc1ncc2c(n1)N(C1CCCC1)CC(F)(F)C(=O)N2C [Compound 40, 4-((9-cyclopentyl-7,7-difluoro-5-methyl-6-oxo-6,7,8,9-tetrahydro-5H-pyrimido[4,5-b][1,4]diazepin-2-yl)amino)-N-(7-((1-(3-(2,4-dioxotetrahydropyrimidin-1 (2H)-yl)-1-methyl-1H-indazol-6-yl)piperidin-4-yl)methyl)-7-azaspiro[3.5]nonan-2-yl)-3-methoxybenzamide] |  | < 30 nM
COc1cc(C(=O)NN2CCC(N3CC4(CCN(c5cccc6c5n(C)c(=O)n6C5CCC(=O)NC5=O)CC4)C3)CC2)ccc1Nc1ncc2c(n1)N(C(C)C)CC(F)(F)C(=O)N2C (centres unmarked) [Compound 41, 4-((7,7-difluoro-9-isopropyl-5-methyl-6-oxo-6,7,8,9-tetrahydro-5H-pyrimido[4,5-b][1,4]diazepin-2-yl)amino)-N-(4-(7-(1-(2,6-dioxopiperidin-3-yl)-3-methyl-2-oxo-2,3-dihydro-1H-benzo[d]imidazol-4-yl)-2,7-diazaspiro[3.5]nonan-2-yl)piperidin-1-yl)-3-methoxybenzamide] | + (+<0.7) | 
